Results as given in patent publication US20230165867A1 (CHENGDU BAIYU PHARMACEUTICAL CO., LTD., priority 2020, published 2023).
Read-outs that look alike come from different tables or passages of the source.

Assays:
[1] = Metabolic stability in liver microsomes; format: in vitro ADME, human; details: human, human liver microsomes; 0.5 µM test substance, 0.5 mg/mL microsomes, NADPH and UDPGA, 37° C.; read-out: T½(min), stability in human liver microsomes
Procedure: Liver microsomes (purchased from Reed Liver Disease Research (Shanghai) Co., Ltd., product: human liver microsomes (NJT)); NADPH (purchased from Roche, Lot: 40939); UDPGA; the compounds of the present invention (test substances).
• (1) A mixed working solution of testosterone (0.5 µM) and 7-hydroxycoumarin (0.5 µM) was prepared. • (2) A mixed solution of NADPH (1 mM) and UDPGA (1 mM) was prepared, and prewarmed at 37° C. in a water bath shaker before use. • (3) Liver microsomes were thawed and diluted with a buffer. • (4) A preparation of a test substance (0.5 µM) and a solution of liver microsomes (0.5 mg/mL) were added to each well of an incubation plate. • (5) Three experimental groups were set and samples were added. Test group: the test substance was incubated with liver microsomes for 0 min, 30 min, 60 min, and 120 min in the presence of the coenzyme NADPH and UDPGA; Positive control group: testosterone (0.5 µM) and 7-hydroxycoumarin (0.5 µM) were incubated with microsomes for 0 min and 120 min in the presence of the coenzyme NADPH and UDPGA; Negative control group: the test substance was incubated with microsomes for 0 and 120 min without any coenzyme. • (6) All samples were incubated at 37° C., and pre-cooled methanol was added at each termination time (0, 15, 30, 45, 60 min, 120 min) to terminate the reaction, and the time was recorded. • (7) All samples were mixed well and centrifuged at 4000 rpm for 10 min. The supernatant was taken and measured by LC-MS/MS for the amount of the test substance remaining in the samples. Data analysis was carried out as follows: T½=0.693 /k, Clint = (0.693/T½) × (1 /(microsomal protein) × Scaling Factors), Note: k is the slope of the logarithm of the remaining amounts of compound versus time.

[2] = Pharmacokinetic assay in ICR mice (i.v. and p.o.); format: in vivo; details: mouse, plasma, male ICR mice; for half-life: read-out: T½ (converted); for bioavailability: po 10 mg/kg vs iv 1 mg/kg
Procedure: ICR mice were purchased from Beijing Vital River Laboratory Animal Technology Co., Ltd.
3.2 Experimental procedure • (1) Healthy male ICR mice (18-22 g) were prepared, with 18 mice for each compound. The mice were divided into 2 groups (an i.v. group and a p.o. group), with 9 mice per group. 3 mice were picked for blood collection at each time point. • (2) After the animals were fasted overnight (with free access to water), the compound of the present invention dissolved (or suspended) in a solvent of 5% DMSO and 95% 30% HP-β-CD (v:v) was administered via the tail vein (i.v., 1 mg/kg) or intragastrically (p.o., 10 mg/kg), respectively. • (3) For the i.v. group, 0.1 mL blood was collected from the submandibular vein 5 min, 15 min, 0.5 h, 1 h, 2 h, 4 h, 8 h, 12 h, and 24 h after administration, respectively, anticoagulated with EDTA-K2, and centrifuged at 4° C. for 5 min to obtain plasma, which was stored at -20° C. until testing. (4) For the p.o. group, 0.1 mL blood was collected from the submandibular vein before administration and 15 min, 0.5 h, 1 h, 2 h, 4 h, 6 h, 8 h, 12 h, and 24 h after administration, and treated in the same manner as that for the intravenous group. • (5) The concentration of the compound of the present invention in plasma was measured by LC/MS/MS. • (6) Calculation and fitting were performed with Analyst 1.6 from AB Company, and the results are shown in Table 3.

DNA-PK kinase = target: T1, DNA-PK kinase (Homo sapiens, UniProt P78527); experiment: Inhibition assay of DNA-PK kinase (Promega kit, ADP-Glo chemiluminescence); format: biochemical; details: 50 µM ATP, 37° C., 60 min; read-out: IC50 (nM), inhibitory activity on DNA-PK kinase
T1 construct: purchased Promega V4107
Method in brief: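 Compounds incubated with DNA-PK at 37° C for 60 min; reaction stopped with ADP-Glo reagent (40 min, RT), then kinase detection reagent (30 min, RT). ADP formed read by luminescence against an ADP standard curve.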

Row | Compound | half-life at 0.5 µM [1] [min] | AUC ([2]; iv, 1 mg/kg) [ng·h/mL] | half-life ([2]; iv, 1 mg/kg) [h] | bioavailability [2] [%] | AUC ([2]; po, 10 mg/kg) [ng·h/mL] | Cmax ([2]; po, 10 mg/kg) [ng/mL] | half-life ([2]; po, 10 mg/kg) [h] | IC50 (DNA-PK kinase) [nM]
1 | Cc1sc(C(N)=O)cc1Nc1ncc2c(n1)n(C1CCOCC1)c(=O)n2C [Compound 42, 5-Methyl-4-((7-methyl-8-oxo-9-(tetrahydro-2H-pyran-4-yl)-8,9-dihydro-7H-purin-2-yl)amino)thiophene-2-carboxamide] | > 120 | 230 | 1.41 | 70 | 1500 | 858 | 1.73 | 2.05
2 | Cc1cc(C(N)=O)c(F)cc1Nc1ncc2c(n1)n([C@@H]1CCOC1)c(=O)n2C [Compound 76, (R)-2-fluoro-5-methyl-4-((7-methyl-8-oxo-9-(tetrahydrofuran-3-yl)-8,9-dihydro-7H-purin-2-yl)amino)benzamiderile] | > 120 | 120 | 0.3 | 104 | 1360 | 1570 | 0.93 | 1.96
3 | Cc1cc(C(N)=O)c(F)cc1Nc1ncc2c(n1)n([C@H]1CC[C@@H](C#N)CC1)c(=O)n2C [Compound 77, 4-((9-(cis-4-cyanocyclohexyl)-7-methyl-8-oxo-8,9-dihydro-7H-purin-2-yl)amino)-2-fluoro-5-methylbenzamide] | > 120 | 545 | 1.55 | 108 | 5970 | 1750 | 3.24 | 4.67
4 | CNC(=O)c1cc(C)c(Nc2ncc3c(n2)n(C2CCOCC2)c(=O)n3C)cn1 [Compound 54, N,4-Dimethyl-5-((7-methyl-8-oxo-9-(tetrahydro-2H-pyran-4-yl)-8,9-dihydro-7H-purin-2-yl)amino)picolinamide] | > 120 | 840 | 5.22 | 63.9 | 5370 | 2060 | 3.21 | 8.07
5 | Cc1cc(C(N)=O)c(F)cc1Nc1ncc2c(n1)n([C@H]1CCOC1)c(=O)n2C [Compound 75, (S)-2-fluoro-5-methyl-4-((7-methyl-8-oxo-9-(tetrahydrofuran-3-yl)-8,9-dihydro-7H-purin-2-yl)amino)benzamiderile] | > 120 | 109 | 0.31 | 69.2 | 756 | 984 | 2.1 | 5.69
6 | Cc1cc(C(N)=O)c(F)cc1Nc1ncc2c(n1)n([C@H]1CC[C@H](C#N)CC1)c(=O)n2C [Compound 79, 4-((9-(trans-4-cyanocyclohexyl)-7-methyl-8-oxo-8,9-dihydro-7H-purin-2-yl)amino)-2-fluoro-5-methylbenzamide] | > 120 | 482 | 0.63 | 100 | 4440 | 2490 | 2.15 | 1.86
7 | COc1cc(C)c(Nc2ncc3c(n2)n(C2CCOCC2)c(=O)n3C)cn1 [Compound 9, 2-((6-methoxy-4-methylpyridin-3-yl)amino)-7-methyl-9-(tetrahydro-2H-pyran-4-yl)-7,9-dihydro-8H-purin-8-one] | > 120 | 323 | 0.41 | 51.4 | 1660 | 1490 | 1.34 | 0.47
8 | CCNC(=O)c1ccc(Nc2ncc3c(n2)n(C2CCOCC2)c(=O)n3C)c(C)c1 [Compound 29, N-ethyl-3-methyl-4-((7-methyl-8-oxo-9-(tetrahydro-2H-pyran-4-yl)-8,9-dihydro-7H-purin-2-yl)amino)benzamide] | > 120 | 609 | 0.46 | 42.1 | 2560 | 1820 | 1.22 | 3.9
9 | Cn1c(=O)n(C2CCOCC2)c2nc(Nc3ccc(C(N)=O)cc3Cl)ncc21 [Compound 26, 3-Chloro-4-((7-methyl-8-oxo-9-(tetrahydro-2H-pyran-4-yl)-8,9-dihydro-7H-purin-2-yl)amino)benzamide] | > 120 | 639 | 1.52 | 110 | 7100 | 2730 | 2.99 | 7.6
10 | [2H]C([2H])([2H])Oc1cc(C)c(Nc2ncc3c(n2)n(C2CCOCC2)c(=O)n3C)cn1 [Compound 38, 2-((6-(methoxy-d3)-4-methylpyridin-3-yl)amino)-7-methyl-9-(tetrahydro-2H-pyran-4-yl)-7,9-dihydro-8H-purin-8-one] | > 120 | 269 | 0.341 | 47.7 | 1310 | 2200 | 1.02 | 0.47
11 | Cc1cc(C#N)c(F)cc1Nc1ncc2c(n1)n(C1CCOCC1)c(=O)n2C [Compound 8, 2-Fluoro-5-methyl-4-((7-methyl-8-oxo-9-(tetrahydro-2H-pyran-4-yl)-8,9-dihydro-7H-purin-2-yl)amino)benzonitrile] | > 120 |  |  |  |  |  |  | 11.7
12 | Cc1cc(C#N)ccc1Nc1ncc2c(n1)n([C@H]1CC[C@H](C#N)CC1)c(=O)n2C [Compound 80, 4-((9-(trans-4-cyanocyclohexyl)-7-methyl-8-oxo-8,9-dihydro-7H-purin-2-yl)amino)-3-methylbenzonitrile] | > 120 | 6300 | 3.12 | 33.6 | 21200 | 3570 | 2.16 | 11.1
13 | COc1cc(Nc2ncc3c(n2)n(C2CCOCC2)c(=O)n3C)c(C)cc1C(N)=O [Compound 57, 2-Methoxy-5-methyl-4-((7-methyl-8-oxo-9-(tetrahydro-2H-pyran-4-yl)-8,9-dihydro-7H-purin-2-yl)amino)benzamide] | > 120 |  |  |  |  |  |  | 3.98
